Measured values as given in BindingDB's records for doi:10.3109/14756369709035816 (R & D, Zambon Group, 1997).

Biological target: T1, Neprilysin (Rattus norvegicus, UniProt P07861)
T1 sequence (P07861 whole entry): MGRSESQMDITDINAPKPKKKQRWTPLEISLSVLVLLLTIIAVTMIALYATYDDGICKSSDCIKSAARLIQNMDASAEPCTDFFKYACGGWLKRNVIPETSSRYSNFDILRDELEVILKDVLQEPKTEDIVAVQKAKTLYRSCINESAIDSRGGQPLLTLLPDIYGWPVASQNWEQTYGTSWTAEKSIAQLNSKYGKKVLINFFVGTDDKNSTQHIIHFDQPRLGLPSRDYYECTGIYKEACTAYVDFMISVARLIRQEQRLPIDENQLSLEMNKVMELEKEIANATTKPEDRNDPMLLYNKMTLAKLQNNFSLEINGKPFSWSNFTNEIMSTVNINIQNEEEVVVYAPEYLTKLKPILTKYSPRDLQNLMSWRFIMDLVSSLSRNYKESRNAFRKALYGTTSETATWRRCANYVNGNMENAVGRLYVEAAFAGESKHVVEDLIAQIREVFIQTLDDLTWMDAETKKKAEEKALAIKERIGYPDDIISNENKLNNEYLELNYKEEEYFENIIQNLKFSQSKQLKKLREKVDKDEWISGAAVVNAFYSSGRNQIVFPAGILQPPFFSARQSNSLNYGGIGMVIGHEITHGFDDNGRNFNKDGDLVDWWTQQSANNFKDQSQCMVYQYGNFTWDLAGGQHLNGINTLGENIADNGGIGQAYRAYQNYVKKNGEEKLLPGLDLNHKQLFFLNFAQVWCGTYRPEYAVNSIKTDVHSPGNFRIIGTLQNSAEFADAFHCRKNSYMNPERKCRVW
Experiment: Enzyme Inhibition Assay
Details: 25 °C
Source text: Enzyme inhibition assay using neutrol endopeptiase EC 3.4.24.11 (NEP).

Row | IC50 [nM] | Compound
1 | 23 | O=C(Nc1ccn[nH]1)C(CS)Cc1ccccc1 (configuration not stated) [NEP inhibitor, 6q]
2 | 3 | O=C(O)c1ccnc(NC(=O)C(CS)Cc2ccccc2)c1 (configuration not stated) [NEP inhibitor, 6i]
3 | 2 | O=C(O)c1cc(NC(=O)C(CS)Cc2ccccc2)cs1 (configuration not stated) [NEP inhibitor, 6k]
4 | 250 | O=C(Nc1ccccc1)c1ccnc(NC(=O)C(CS)Cc2ccccc2)c1 (configuration not stated) [NEP inhibitor, 6s]
5 | 5 | CN(C)C(=O)c1ccnc(NC(=O)C(CS)Cc2ccccc2)c1 (configuration not stated) [NEP inhibitor, 6r]
6 | 2 | O=C(O)c1cc(NC(=O)C(CS)Cc2ccc(Cl)cc2)c[nH]1 (configuration not stated) [NEP inhibitor, 6n]
7 | 13 | O=C(O)c1cc(NC(=O)C(CS)Cc2cccnc2)cs1 (configuration not stated) [NEP inhibitor, 6l]
8 | 5.5 | O=C(O)c1ccnc(NC(=O)C(CS)Cc2ccc3c(c2)OCO3)c1 (configuration not stated) [NEP inhibitor, 6j]
9 | 5 | O=C(O)c1cncc(NC(=O)C(CS)Cc2ccccc2)c1 (configuration not stated) [NEP inhibitor, 6h]
10 | 9 | O=C(O)c1csc(NC(=O)C(CS)Cc2ccccc2)n1 (configuration not stated) [NEP inhibitor, 6p]
11 | 2 | O=C(O)c1cc(NC(=O)C(CS)Cc2ccccc2)c[nH]1 (configuration not stated) [NEP inhibitor, 6m]
12 | 60 | CC(CS)C(=O)Nc1cncc(C(=O)O)c1 (configuration not stated) [NEP inhibitor, 6g]
